Data taken from US20210205329A1 (The University of North Carolina at Chapel Hill, priority 2018, published 2021).

What was measured:
[1] = system: TLR3 signal; test: Poly(I:C)-activated TLR3 signaling in RAW264.7 cells; assay type: cell-based, mouse; conditions: 1 μM; Poly-IC 25 μg/ml; 24 hrs
[2] = system: CX3CL1; test: CX3CL1 (fracktalkine) ELISA in P rat NAc; assay type: in vivo; conditions: 15 mg/kg IP, 45 min
Protocol: Rats were administered VEH or 3α,5α-THP (15 mg/kg, IP) and sacrificed after 45 min. CX3CL1 was measured by ELISA (Raybiotech—ERC-CX3CL1-CL; Norcross, Ga., USA) as per manufacturer's instructions. (Two-way ANOVA: F (1,28)=13.63, P<0.001, Tukey's multiple comparisons test *P<0.05).
ELISA. Brain tissue micropunches were lysed with Cellyte MT and the extracts were assayed for protein content by the BCA procedure (Pierce) and for MCP-1 using the rat MCP-1 ELISA kit (Raybiotech—ERC-MCP-1-CL; Norcross, Ga., USA) or for fracktalkine using the rat fractalkine ELISA kit (Raybiotech—ERC-CX3CL1-CL; Norcross, Ga., USA) as per manufacturer's instructions.
Activation of TLR4 signaling can result in the production of both pro-inflammatory and anti-inflammatory cytokines in P rat brain, but the factors that determine the outcome of TLR4 activation are unknown. […] 3α,5α-THP administration to naïve female and male P rats enhanced the expression of CX3CL1 by 90% in female rat NAc and 34% in male rat NAc. No sex difference in the effect of 3α,5α-THP was observed.

[3] = 3α,5α-THP radioimmunoassay of RAW264.7 cell culture media (conversion of pregnenolone); assay type: in vitro ADME, mouse
Protocol: 3α,5α-THP Radioimmunoassay (RIA), 3α,5α-THP concentrations in the RAW264.7 cell media were measured by radioimmunoassay as described elsewhere (VanDoren et al, 2000), modified for use with cell media (Cook et al, 2014), Briefly, 3α,5α-THP was extracted from ceil media three times with 3 ml of ethyl acetate and spiked with 1000 counts per minute of [^3H]3α,5α-THP for recovery. The extracts were purified using solid phase silica columns (Burdick and Jackson, Muskegon, Mich.) and used for the assay (run in duplicate) and for recovery measurement. Steroid levels in the samples were extrapolated from a concurrently run standard curve and corrected for their respective extraction efficiencies. The 3α,5α-THP antibody (1:500) was provided by the late Dr. Robert Purdy at Scripps Research Institute. […] The validity of the assay has been verified by gas chromatography mass spectrometry determinations (Porcu et al, 2010), 3α,5α-THP values are expressed as ng/ml of cell media.
Since pregnenolone is a precursor for 3α,5α-THP, the possibility that pregnenolone may have been converted in the RAW264.7 cells was considered by analysis of 3α,5α-THP levels in the cell culture media at the time of cell harvest, 3α,5α-THP was detected at less than 0.69±0.11 nmol/L, indicative of less than 0.1% conversion of 1.0 μM pregnenolone.

SMILES	effect of Poly(I:C) on IP-10 (CXCL10) expression [1]	enhancement of CX3CL1 expression in NAc ([2]; naïve female P rats) [%]	enhancement of CX3CL1 expression in NAc ([2]; naïve male P rats) [%]	conversion of pregnenolone to 3α,5α-THP ([3]; 1.0 μM pregnenolone, RAW264.7 cells)	3α,5α-THP level in the cell culture media at the time of cell harvest ([3]; RAW264.7 cells treated with 1.0 μM pregnenolone)
CC(=O)[C@H]1CC[C@H]2[C@@H]3CC[C@H]4C[C@H](O)CC[C@]4(C)[C@H]3CC[C@]12C [3α,5α-THP, (3α,5α)3-hydroxypregnan-20-one]	not altered	90	34	–	–
CC(=O)[C@H]1CC[C@H]2[C@@H]3CC=C4C[C@@H](O)CC[C@]4(C)[C@H]3CC[C@]12C [pregnenolone]	–	–	–	less than 0.1%	less than 0.69±0.11 nmol/L
